Columns and labels:
[1] = tested on: RAW 264.7 gamma NO(−) macrophages; assay: Cell viability of activated macrophages (MTT or resazurin assay); assay type: cell-based, mouse
Experimental: Cell culture. […] All cultures were incubated at 37° C. in a humidified atmosphere with 5% CO2. Cell number was assessed by trypan blue dye exclusion on a Neubauer hemacytometer. Cells were grown to 90% confluence in sterile cell culture flasks and gently detached using a scraper (Fisher Scientific). For phenolic compound treatment tests, cells were cultured in triplicate in Costar flat-bottom cell culture plates (Corning Inc.). Cells were plated at a density of 6×10^5 cells/well in 24-well cell culture plates and grown for 1 h to allow them to attach to the plate. Compounds to be tested were initially dissolved in 10 μl of DMSO, and then RPMI was added to make solutions in a series of concentrations with a dilution factor of 2. […] Cells were supplemented with the test compounds for 1 h before stimulation with 10 ng/ml lipopolysaccharide (LPS) and 10-50 units/ml interferon gamma (IFN-γ). The activated cells were incubated for 24 h and then supernatants were collected to determine nitrite concentration and/or stored at −80° C. for further use. Control cells were grown under identical conditions but were not exposed to the test compounds or LPS/IFN-γ.
Cell Viability. Cell viability was determined by the MTT assay and/or the resazurin-based in vitro toxicology assay kit, TOX-8 (Sigma). The viability of cells activated only by LPS/IFN-γ was arbitrarily set as 100, and all other viabilities, that is, cells receiving different treatments but within the same 24-well plate, were normalized to that of the LPS/IFN-γ activated control cells.
Inhibition of Nitric Oxide Production. […] Cell viability was assayed to exclude the possibility that the inhibitory effects of phenolic compounds were due to their cytotoxicity. The MTT assay was used for the colorless phenolic compound-treated macrophages, whereas the resazurin assay was used for cranberry and blueberry juice-treated macrophages.

[2] = tested on: TNF-α production in LPS/IFN-γ-activated RAW 264.7 gamma NO(−) macrophages; assay: TNF-α quantification (ELISA) in supernatants of activated macrophages; assay type: cell-based, mouse; conditions: for TNF-α: LPS/IFN-γ control = 100; for Effect on TNF-α production, in words: over the tested concentrations
Experimental: Cell culture. The mouse monocyte/macrophage cell line RAW 264.7 gamma NO(−) [American Type Culture Collection (ATCC)] was cultured in RPMI-1640 supplemented with 10% (v/v) heat-inactivated FBS, streptomycin ([…]) and penicillin (100 units/ml). All cultures were incubated at 37° C. in a humidified atmosphere with 5% CO2. Cell number was assessed by trypan blue dye exclusion on a Neubauer hemacytometer. Cells were grown to 90% confluence in sterile cell culture flasks and gently detached using a scraper (Fisher Scientific). For phenolic compound treatment tests, cells were cultured in triplicate in Costar flat-bottom cell culture plates (Corning Inc.). Cells were plated at a density of 6×10^5 cells/well in 24-well cell culture plates and grown for 1 h to allow them to attach to the plate. Compounds to be tested were initially dissolved in 10 μl of DMSO, and then RPMI was added to make solutions in a series of concentrations with a dilution factor of 2. […] For berry juices, the final concentrations were 16, 31, 63, 125, 250 and 500 μM GAE, respectively. Cells were supplemented with the test compounds for 1 h before stimulation with 10 ng/ml lipopolysaccharide (LPS) and 10-50 units/ml interferon gamma (IFN-γ). The activated cells were incubated for 24 h and then supernatants were collected to determine nitrite concentration and/or stored at −80° C. for further use. Control cells were grown under identical conditions but were not exposed to the test compounds or LPS/IFN-γ.
Tumour necrosis factor alpha (TNF-α) Quantification. TNF-α in cell supernatants was determined by using an OptELISA set mouse TNF-α (mono/poly) from BD PharMingen. The enzyme-linked immunosorbent assay (ELISA) was carried out as specified by the manufacturer.

[3] = NO experiment (Table 7), 31 μM, LPS/IFN-γ control = 100
[4] = NO experiment (Table 7), 63 μM, LPS/IFN-γ control = 100
[5] = NO experiment (Table 7), 125 μM, LPS/IFN-γ control = 100
[6] = TNF-α experiment (Table 8), 100 μM
[7] = TNF-α experiment (Table 8), 200 μM
[8] = TNF-α experiment (Table 8), 300 μM
[9] = TNF-α experiment (Table 8), 400 μM
[10] = TNF-α experiment (Table 8), 500 μM

SMILES | Cell viability ([1]; NO experiment (Table 7), 16 μM, LPS/IFN-γ control = 100) | Cell viability [1, 3] | Cell viability [1, 4] | Cell viability [1, 5] | Cell viability ([1]; NO experiment (Table 7), 250 μM, LPS/IFN-γ control = 100) | Cell viability ([1]; NO experiment (Table 7), 500 μM, LPS/IFN-γ control = 100) | Cell viability ([1]; TNF-α experiment (Table 8), 50 μM) | Cell viability [1, 6] | Cell viability [1, 7] | Cell viability [1, 8] | Cell viability [1, 9] | Cell viability [1, 10] | TNF-α ([2]; 50 μM) | TNF-α ([2]; 100 μM) | TNF-α ([2]; 200 μM) | TNF-α ([2]; 300 μM) | TNF-α ([2]; 400 μM) | TNF-α ([2]; 500 μM) | Effect on TNF-α production, in words [2]
O=C(O)c1cc(O)c(O)c(O)c1 [Gallic acid] | 110 (2.2) % | 111 (6.4) % | 98.9 (0.9) % | 108.5 (0.6) % | 100.6 (3.7) % | 109.7 (5.4) % | 97.7 (0.4) % | 98.3 (2.3) % | 96.7 (0.8) % | 97.6 (2.5) % | 96.1 (2.3) % | 95.6 (1.6) % | 103.4 (3.2) % | 126.2 (11) % | 160.3 (8.4) % | 257.4 (36.7) % | 213.9 (54.8) % | 183.5 (19.8) % | may induce TNF-α production
O=C(/C=C/c1ccc(O)c(O)c1)O[C@@H]1C[C@](O)(C(=O)O)C[C@@H](O)[C@H]1O [Chlorogenic acid] |  | 105.6 (8.7) % | 106 (5.7) % | 98.5 (7.1) % |  |  |  | 100.6 (1.9) % | 98.9 (2.3) % | 97.1 (1.4) % | 97.3 (1) % | 99 (1.9) % | 105.7 (8.4) % |  | 99.2 (7.6) % |  | 126 (31.1) % | 115.6 (15.4) % | may induce TNF-α production

— patent US9358262B2, “Use of antioxidant-enriched fermented blueberry extracts in the treatment of diabetes” (priority 2003, dated 2016)
